# Measurements reported in ChEMBL document CHEMBL5500375, “Design, synthesis, and evaluation of N1,N3-dialkyldioxonaphthoimidazoliums as antibacterial agents against methicillin-resistant Staphylococcus aureus” (Eur J Med Chem, 2024).
# Calls of active or inactive are those of the source. No cut-off for these calls is given here.
# Experiments:
# Staphylococcus aureus [1] = assay: Antibacterial agents against methicillin-resistant Staphylococcus aureus SA3 assessed as absence of growth measured after 18 hrs by micro-dilution method; assay type: functional
# Staphylococcus aureus [2] = assay: Antibacterial agents against methicillin-sensitive Staphylococcus aureus SA1 assessed as absence of growth measured after 18 hrs by micro-dilution method; assay type: functional
# Bacillus subtilis = assay: Antibacterial agents against Bacillus subtilis PS380 assessed as absence of growth measured after 18 hrs by micro-dilution method; assay type: functional
# Staphylococcus aureus [3] = assay: Antibacterial agents against methicillin-resistant Staphylococcus aureus USA300 assessed as absence of growth measured after 18 hrs by micro-dilution method; assay type: functional
# Staphylococcus aureus [4] = assay: Antibacterial agents against methicillin-sensitive Staphylococcus aureus Newman assessed as absence of growth measured after 18 hrs by micro-dilution method; assay type: functional
# [5] = In vivo toxicity in Drosophila melanogaster strain Oregon R assessed as survival rate at 0.1 to 1 mg/ml measured upto 72 hrs relative to control; assay type: organism-based; details: dose 0.1-1 mg/ml; for Activity: 72 h
# [6] = Metabolic stability in human liver microsomes assessed as half life at 2 uM preincubated for 5 mins followed by NADPH addition and measured for 35 mins by LC/MS analysis; assay type: ADME, Microsome; details: preincubation 5 min
# [7] = Metabolic stability in human liver microsomes assessed as intrinsic clearance at 2 uM preincubated for 5 mins followed by NADPH addition and measured for 35 mins by LC/MS analysis; assay type: ADME, Microsome; details: read-out: CLH
# Staphylococcus aureus [8] = assay: In vivo antibacterial activity against methicillin-resistant Staphylococcus aureus SA3 infected in dorsal thorax of Drosophila melanogaster strain Oregon R assessed as survival time of Drosophila at 0.2 mg/ml measured upto 72 hrs; assay type: functional
# Staphylococcus aureus [9] = assay: In vivo antibacterial activity against methicillin-resistant Staphylococcus aureus SA3 infected in dorsal thorax of Drosophila melanogaster strain Oregon R assessed as median survival time of Drosophila at 0.04 to 0.2 mg/ml measured upto 72 hrs; assay type: functional; details: dose 0.04-0.2 mg/ml
# Staphylococcus aureus [10] = assay: Reduction in virulent activity of methicillin-resistant Staphylococcus aureus SA3 infected in dorsal thorax of Drosophila melanogaster strain Oregon R at 0.2 mg/ml measured upto 72 hrs; assay type: functional, organism-based
Structure (SMILES),MIC (Staphylococcus aureus [1]) [µg/mL],MIC (Staphylococcus aureus [2]) [µg/mL],MIC (Bacillus subtilis) [µg/mL],other results
CCCCCCCCn1c2c([n+](CCCCCCCC)c1C)C(=O)c1ccccc1C2=O.[Br-],3.13,–,–,–
CCCn1c2c([n+](Cc3ccccc3)c1C)C(=O)c1ccccc1C2=O.[Br-],6.25,–,–,–
Cc1n(CC2CCCCC2)c2c([n+]1Cc1ccccc1)C(=O)c1ccccc1C2=O.[Br-],1.56,1.56,0.78,–
Cc1n(C(C)C)c2c([n+]1Cc1ccccc1)C(=O)c1ccccc1C2=O.[Br-],3.13,–,–,–
CCn1c2c([n+](Cc3ccco3)c1C)C(=O)c1ccccc1C2=O.[Br-],12.5,–,–,–
CCCCCCCCn1c2c([n+](CCCC)c1C)C(=O)c1ccccc1C2=O.[Br-],0.39,0.39,0.39,MIC (Staphylococcus aureus [3]): 0.39 µg/mL; MIC (Staphylococcus aureus [4]): 0.39 µg/mL; Activity [5]: Non-Toxic; half-life at 2 µM [6]: 11.6 min; CLint scaled at 2 µM [7]: 125 mL/min/kg
CCCCCCCCn1c2c([n+](Cc3ccco3)c1C)C(=O)c1ccccc1C2=O.[Br-],0.39,0.39,0.39,MIC (Staphylococcus aureus [3]): 0.39 µg/mL; MIC (Staphylococcus aureus [4]): 0.39 µg/mL; Activity [5]: Toxic; half-life at 2 µM [6]: 16.1 min; CLint scaled at 2 µM [7]: 95 mL/min/kg
CCCCCn1c2c([n+](Cc3ccco3)c1C)C(=O)c1ccccc1C2=O.[Br-],3.13,–,–,–
Cc1n(Cc2ccco2)c2c([n+]1Cc1ccccc1)C(=O)c1ccccc1C2=O.[Br-],6.25,–,–,–
Cc1n(C2CCCC2)c2c([n+]1Cc1ccccc1)C(=O)c1ccccc1C2=O.[Br-],12.5,–,–,–
CCCC[n+]1c2c(n(C(C)(C)C)c1C)C(=O)c1ccccc1C2=O.[Br-],6.25,–,–,–
CCCCCCn1c2c([n+](Cc3ccccc3)c1C)C(=O)c1ccccc1C2=O.[Br-],0.78,0.78,0.78,–
CCn1c2c([n+](Cc3ccccc3)c1C)C(=O)c1ccccc1C2=O.[Br-],3.13,–,–,–
CCCCCCCn1c2c([n+](Cc3ccco3)c1C)C(=O)c1ccccc1C2=O.[Br-],0.78,0.78,0.78,MIC (Staphylococcus aureus [3]): 0.78 µg/mL; MIC (Staphylococcus aureus [4]): 0.78 µg/mL; Activity [5]: Non-Toxic; half-life at 2 µM [6]: 55.1 min; CLint scaled at 2 µM [7]: 24 mL/min/kg
CCCC[n+]1c2c(n(C(C)C)c1C)C(=O)c1ccccc1C2=O.[Br-],3.13,–,–,–
CCCCn1c2c([n+](Cc3ccccc3)c1C)C(=O)c1ccccc1C2=O.[Br-],12.5,–,–,–
CCCCCCCn1c2c([n+](CCCCCCC)c1C)C(=O)c1ccccc1C2=O.[Br-],0.39,0.39,0.39,MIC (Staphylococcus aureus [3]): 0.39 µg/mL; MIC (Staphylococcus aureus [4]): 0.39 µg/mL; Activity [5]: Non-Toxic; half-life at 2 µM [6]: 17.4 min; CLint scaled at 2 µM [7]: 77 mL/min/kg
CCCC[n+]1c2c(n(C3CCC3)c1C)C(=O)c1ccccc1C2=O.[Br-],25,–,–,–
CCCn1c2c([n+](Cc3ccco3)c1C)C(=O)c1ccccc1C2=O.[Br-],12.5,–,–,–
CCCC[n+]1c2c(n(CC(C)C)c1C)C(=O)c1ccccc1C2=O.[Br-],3.13,–,–,–
CCCCCCCCCCn1c2c([n+](CCCC)c1C)C(=O)c1ccccc1C2=O.[Br-],3.13,–,–,–
Cc1n(C(C)(C)C)c2c([n+]1Cc1ccccc1)C(=O)c1ccccc1C2=O.[Br-],3.13,–,–,–
Cc1n(CC(C)C)c2c([n+]1Cc1ccccc1)C(=O)c1ccccc1C2=O.[Br-],3.13,–,–,–

Structure (SMILES),MIC (Staphylococcus aureus [1]) [µg/mL],MIC (Staphylococcus aureus [2]) [µg/mL],MIC (Bacillus subtilis) [µg/mL],other results
COCC[n+]1c2c(n(Cc3cnccn3)c1C)C(=O)c1ccccc1C2=O.[Br-] [SEPANTRONIUM BROMIDE],50,–,–,–
CCCCn1c2c([n+](CC3CCCCC3)c1C)C(=O)c1ccccc1C2=O.[Br-],3.13,–,–,–
CCCCCC[n+]1c2c(n(CCCC)c1C)C(=O)c1ccccc1C2=O.[Br-],3.13,–,–,–
CCCCCCCn1c2c([n+](Cc3ccccc3)c1C)C(=O)c1ccccc1C2=O.[Br-],0.78,0.39,0.78,"MIC (Staphylococcus aureus [3]): 0.78 µg/mL; MIC (Staphylococcus aureus [4]): 0.39 µg/mL; survival at 72 h ([5]; Oregon R, at 0.1 to 1 mg/mL): 75%; half-life at 2 µM [6]: 15.6 min; CLint scaled at 2 µM [7]: 101 mL/min/kg"
CCCC[n+]1c2c(n(CC3CC3)c1C)C(=O)c1ccccc1C2=O.[Br-],12.5,–,–,–
CN[C@H](CC(C)C)C(=O)N[C@H]1C(=O)N[C@@H](CC(N)=O)C(=O)N[C@H]2C(=O)N[C@H]3C(=O)N[C@H](C(=O)N[C@H](C(=O)O)c4cc(O)cc(O)c4-c4cc3ccc4O)[C@H](O)c3ccc(c(Cl)c3)Oc3cc2cc(c3O[C@@H]2O[C@H](CO)[C@@H](O)[C@H](O)[C@H]2O[C@H]2C[C@](C)(N)[C@H](O)[C@H](C)O2)Oc2ccc(cc2Cl)[C@H]1O [VANCOMYCIN],6.25,1.56,0.19,MIC (Staphylococcus aureus [3]): 6.25 µg/mL; MIC (Staphylococcus aureus [4]): 1.56 µg/mL; Time (Staphylococcus aureus [8]): 54 h; Time (Staphylococcus aureus [9]): 40 h; Activity (Staphylococcus aureus [10]): inactive
CCCCCn1c2c([n+](CCCC)c1C)C(=O)c1ccccc1C2=O.[Br-],3.13,–,–,–
CCCCCn1c2c([n+](Cc3ccccc3)c1C)C(=O)c1ccccc1C2=O.[Br-],1.56,3.13,6.25,–
CCCCCCn1c2c([n+](CCCCCC)c1C)C(=O)c1ccccc1C2=O.[Br-],0.78,0.78,1.56,MIC (Staphylococcus aureus [3]): 0.78 µg/mL; MIC (Staphylococcus aureus [4]): 0.78 µg/mL
Cc1n(C2CCC2)c2c([n+]1Cc1ccccc1)C(=O)c1ccccc1C2=O.[Br-],3.13,–,–,–
CCCCCCCn1c2c([n+](CCCC)c1C)C(=O)c1ccccc1C2=O.[Br-],0.78,0.78,0.39,–
CCCCCCn1c2c([n+](Cc3ccco3)c1C)C(=O)c1ccccc1C2=O.[Br-],0.78,0.78,3.13,–
Cc1n(C2CCCCC2)c2c([n+]1Cc1ccccc1)C(=O)c1ccccc1C2=O.[Br-],1.56,0.78,1.56,–
CCCCCCCCCn1c2c([n+](Cc3ccccc3)c1C)C(=O)c1ccccc1C2=O.[Br-],0.39,0.39,1.56,MIC (Staphylococcus aureus [3]): 0.39 µg/mL; MIC (Staphylococcus aureus [4]): 0.39 µg/mL; Activity [5]: Toxic; half-life at 2 µM [6]: 51.8 min; CLint scaled at 2 µM [7]: 26 mL/min/kg
CCCCn1c2c([n+](C3CCCCC3)c1C)C(=O)c1ccccc1C2=O.[Br-],25,–,–,–
Cc1n(CC2CC2)c2c([n+]1Cc1ccccc1)C(=O)c1ccccc1C2=O.[Br-],1.56,0.78,1.56,–
Cc1n(C2CCCCCC2)c2c([n+]1Cc1ccccc1)C(=O)c1ccccc1C2=O.[Br-],6.25,–,–,–
CCCCCCCCCCn1c2c([n+](Cc3ccccc3)c1C)C(=O)c1ccccc1C2=O.[Br-],0.39,0.39,1.56,MIC (Staphylococcus aureus [3]): 0.39 µg/mL; MIC (Staphylococcus aureus [4]): 0.39 µg/mL; Activity [5]: Toxic; half-life at 2 µM [6]: 13.2 min; CLint scaled at 2 µM [7]: 103 mL/min/kg
Cc1n(C2CC2)c2c([n+]1Cc1ccccc1)C(=O)c1ccccc1C2=O.[Br-],6.25,–,–,–
CCCCCCCCCn1c2c([n+](CCCC)c1C)C(=O)c1ccccc1C2=O.[Br-],3.13,–,–,–
CCCCn1c2c([n+](Cc3ccco3)c1C)C(=O)c1ccccc1C2=O.[Br-],6.25,–,–,–
CCCCCn1c2c([n+](CCCCC)c1C)C(=O)c1ccccc1C2=O.[Br-],3.13,–,–,–
